Like-named read-outs stand apart in the source and are kept apart here.

Test [1] concerns the target T1, PRMT5 (Homo sapiens, UniProt O14744).
T1 construct: purchased Viva (custom protein)
Kind of test: PRMT5 biochemical IC50 assay with SAM as cofactor. Particulars: PRMT5, SAM as cofactor; read-out: SAM IC50.

Test [2] has as its target T1, PRMT5. Kind of test: PRMT5 biochemical IC50 assay with no cofactor. To be noted: PRMT5, no cofactor. The source says:
Table 1 indicates IC50 values (μM) against PRMT5 for exemplary compounds in the presence of SAM as cofactor, with no cofactor, and with MTA as cofactor, respectively (columns 4-6). […] Ki values can be calculated from the IC50 values as described in the Examples section. As detailed in the Examples section, for the assay performed in the presence of SAM, IC50=Ki×1.5 (Ki=IC50/1.5).

Test [3] concerns the target T1, PRMT5. The test is described as follows: PRMT5 biochemical IC50 assay with MTA as cofactor. Particulars: PRMT5, MTA as cofactor; read-out: MTA IC50.
Test [4] deals with HAP1 MTAP-intact cell line. The test is described as follows: SDMA in-cell western assay, HAP1 MTAP-intact. Particulars: Homo sapiens. It is filed as cell-based. The essentials:
(§1)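 Readout: in-cell western detection of SDMA. Cells: HAP1 expressing endogenous MTAP and an MTAP-null HAP1 counterpart. Output: IC50.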

Test [5] concerns HAP1 MTAP-deleted cell line. Kind of test: SDMA in-cell western assay, HAP1 MTAP-deleted. It is filed as cell-based. The essentials:
as §1

The test system of test [6] is HAP1 MTAP-deleted cell line. Kind of test: Viability assay, MTAP-deleted cell line. It is filed as cell-based. To be noted: Homo sapiens. The source says:
Table 1 additionally indicates IC50 values in a viability assay for the MTAP-deleted cell line (column 10), indicating the effect of treatment with compound on cell survival.

[7] abbreviates: read-out: No Cofactor/ rel IC50.
Where [8] appears, read: HAP1, SDMA in-cell western, HAP1 MTAP-intact, read-out: MTAP HAP1 intact IC50.
Setting [9] is: Homo sapiens, HAP1, SDMA in-cell western, HAP1 MTAP-deleted, read-out: HAP 1 MTAP deleted IC50.
Where [10] appears, read: HAP1, viability assay, MTAP-deleted cell line, read-out: HAP1 MTAP deleted viability.
Setting [11] is: Homo sapiens, HAP1, SDMA in-cell western, HAP1 MTAP-deleted, read-out: HAP1 MTAP deleted IC50.
Setting [12] is: IC50 ratio HAP1 MTAP-intact / HAP1 MTAP-deleted, SDMA in-cell western.
Setting [13] is: HAP1, viability, HAP1 MTAP-deleted cell line, read-out: HAP1 MTAP deleted viability.

T1 sequence (O14744 whole entry): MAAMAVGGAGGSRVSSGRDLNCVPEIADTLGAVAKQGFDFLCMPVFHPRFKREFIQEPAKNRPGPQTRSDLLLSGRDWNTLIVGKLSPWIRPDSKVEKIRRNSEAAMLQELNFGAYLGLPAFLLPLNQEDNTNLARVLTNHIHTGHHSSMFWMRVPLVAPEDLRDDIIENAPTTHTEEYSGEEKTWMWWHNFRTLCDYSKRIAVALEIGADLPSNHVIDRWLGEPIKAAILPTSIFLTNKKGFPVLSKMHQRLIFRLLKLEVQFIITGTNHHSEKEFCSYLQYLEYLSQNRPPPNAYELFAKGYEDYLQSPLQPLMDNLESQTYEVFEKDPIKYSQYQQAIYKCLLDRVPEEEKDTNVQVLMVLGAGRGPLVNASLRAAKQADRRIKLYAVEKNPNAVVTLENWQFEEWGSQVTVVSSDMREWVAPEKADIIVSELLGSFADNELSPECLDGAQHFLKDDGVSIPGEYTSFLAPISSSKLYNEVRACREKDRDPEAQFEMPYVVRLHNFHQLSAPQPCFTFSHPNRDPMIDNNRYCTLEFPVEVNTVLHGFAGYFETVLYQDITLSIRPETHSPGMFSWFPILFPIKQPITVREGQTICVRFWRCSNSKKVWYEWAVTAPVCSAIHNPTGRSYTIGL
T1 sequence (Q9BQA1 whole entry partner): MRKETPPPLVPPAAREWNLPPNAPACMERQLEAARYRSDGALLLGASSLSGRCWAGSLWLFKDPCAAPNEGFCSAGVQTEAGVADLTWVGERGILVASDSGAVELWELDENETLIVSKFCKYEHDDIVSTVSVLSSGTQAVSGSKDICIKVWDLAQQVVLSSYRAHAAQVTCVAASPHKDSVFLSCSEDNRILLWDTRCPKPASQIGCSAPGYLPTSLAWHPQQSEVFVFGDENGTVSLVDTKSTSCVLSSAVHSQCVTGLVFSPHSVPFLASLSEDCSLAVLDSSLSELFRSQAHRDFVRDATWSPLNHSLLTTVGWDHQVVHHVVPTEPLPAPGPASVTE

In the case of `Cc1cc(NC(=O)C(=O)N2C[C@H](C)CC[C@H]2c2cccnc2)cnc1N` (racemic) [Compound 146, N-(6-amino-5-methyl-3-pyridyl)-2-[(2S,5R)-5-methyl-2-(3-pyridyl)-1-piperidyl]-2-oxo-acetamide], the IC50 in test [1] was 50 to 500 nM; in test [2] (setting [7]), 50 to 500 nM; in test [3], less than 50 nM; in test [4] (setting [8]) it was greater than 1000 nM; in test [5] (setting [9]), less than 100 nM; in test [6] (setting [10]), 1000 to 10000 nM.

For `C[C@@H]1CC[C@@H](c2ccc3c(c2)OCC3)N(C(=O)C(=O)Nc2cncc(C(N)=O)c2)C1` (racemic) [Compound 405, rac-5-{2-[(2R,5S)-2-(2,3-Dihydro-1-benzofuran-6-yl)-5-methylpiperidin-1-yl]-2-oxoacetamido}pyridine-3-carboxamide], the IC50 in test [1] is 50 to 500 nM; in test [2] (read-out: No Cofactor/rel IC50), 50 to 500 nM; in test [3], 50 to 500 nM; in test [4] (setting [8]) it was greater than 1000 nM; in test [5] (setting [11]) it was less than 100 nM; in test [6] (setting [10]) it was 1000 to 10000 nM. Besides, the MTAP intact/deleted ratio entry in test [5] (setting [12]) is “A (an IC50 ratio greater than or equal to 10 fold)”.

For `Cc1cncc(NC(=O)C(=O)N2C[C@H](C)CC[C@H]2c2cccc(F)c2)c1` (racemic) [Compound 70, rac-2-[(2S,5R)-2-(3-fluorophenyl)-5-methyl-1-piperidyl]-N-(5-methyl-3-pyridyl)-2-oxo-acetamide], the IC50 is greater than 500 nM in test [1]; greater than 500 nM in test [2] (setting [7]); 50 to 500 nM in test [3]; greater than 1000 nM in test [4] (setting [8]); greater than 1000 nM in test [5] (setting [9]); greater than 10000 nM in test [6] (setting [10]). In test [5] (setting [12]), the “MTAP intact/deleted ratio” value was “C (an IC50 ratio of less than 3 fold)”.

`NC(=O)c1cncc(NC(=O)C(=O)N2C[C@@H](CO)CC[C@@H]2c2ccccc2)c1` (racemic) [Compound 266, 5-(2-(5-(hydroxymethyl)-2-phenylpiperidin-1-yl)-2-oxoacetamido)nicotinamide]: the IC50 in test [1] was 50 to 500 nM; in test [2] (read-out: No Cofactor/rel IC50) it was greater than 500 nM; in test [3] it was 50 to 500 nM; in test [4] (setting [8]), greater than 1000 nM; in test [5] (setting [11]), 100 to 1000 nM; in test [6] (setting [10]), greater than 10000 nM. Besides, in test [5] (setting [12]), the MTAP intact/deleted ratio result is reported as “A (an IC50 ratio greater than or equal to 10 fold)”.

In the case of `Cc1cc(NC(=O)C(=O)N2C[C@@H](C)CC[C@@H]2c2ccc3sc(C(F)(F)F)nc3c2)cnc1N` (single isomer, unassigned) [Compound 972], the IC50 in test [1] is 50 to 500 nM; in test [2] (read-out: No Cofactor/rel IC50), 50 to 500 nM; in test [3], less than 50 nM; in test [4] (setting [8]), less than 100 nM; in test [5] (setting [9]), less than 100 nM; in test [6] (setting [10]), less than 1000 nM. For the same compound, the MTAP intact/deleted ratio result in test [5] (setting [12]) is on record as “B (an IC50 ratio greater than or equal to 3 fold but lower than 10 fold)”.

Take `COc1ncc(NC(=O)C(=O)N2C[C@@H](C)CC[C@@H]2c2cnc3[nH]ncc3c2)cc1C(N)=O` (single isomer, unassigned) [Compound 537]: the IC50 in test [1] is greater than 500 nM; in test [2] (read-out: No Cofactor/rel IC50), greater than 500 nM; in test [3], greater than 500 nM; in test [4] (setting [8]), greater than 1000 nM; in test [5] (setting [9]) it was greater than 1000 nM; in test [6] (HAP1, viability IC50, MTAP-deleted cell line, read-out: HAP1 MTAP deleted viability), greater than 10000 nM. The MTAP intact/deleted ratio entry in test [5] (setting [12]) was “C (an IC50 ratio of less than 3 fold)”.

For `NC(=O)c1cncc(NC(=O)C(=O)N2CCCCC2C2CCC2)c1` (centres unmarked) [Compound 103, 5-[[2-(2-cyclobutyl-1-piperidyl)-2-oxo-acetyl]amino]pyridine-3-carboxamide], the IC50 in test [1] is 50 to 500 nM; in test [2] (setting [7]), 50 to 500 nM; in test [3] it was less than 50 nM; in test [4] (setting [8]), greater than 1000 nM; in test [5] (setting [9]), 100 to 1000 nM; in test [6] (setting [10]), greater than 10000 nM. In addition, the “MTAP intact/deleted ratio” value in test [5] (setting [12]) is “A (an IC50 ratio greater than or equal to 10 fold)”.

Consider `C[C@@H]1CC[C@@H](c2ccc3c(cnn3CCN(C)C)c2)N(C(=O)C(=O)Nc2cnc(N)c(C3CC3)c2)C1` (single isomer, unassigned) [Compound 1249], for which the IC50 in test [1] is 50 to 500 nM; in test [2] (setting [7]), less than 50 nM; in test [3] it was less than 50 nM; in test [4] (setting [8]), 100 to 1000 nM; in test [5] (setting [9]), less than 100 nM; in test [6] (setting [13]), less than 1000 nM. Further, the “MTAP intact/deleted ratio” value in test [5] (setting [12]) is “A (an IC50 ratio greater than or equal to 10 fold)”.

On to `C[C@@H]1CC[C@@H](c2cc(Cl)cc(Cl)c2)N(C(=O)C(=O)Nc2cncc(C(N)=O)c2)C1` (single isomer, unassigned) [Compound 490], for which the IC50 was greater than 500 nM in test [1]; greater than 500 nM in test [2] (read-out: No Cofactor/rel IC50); greater than 500 nM in test [3]; greater than 1000 nM in test [4] (setting [8]); greater than 1000 nM in test [5] (setting [11]); greater than 10000 nM in test [6] (setting [10]). Moreover, in test [5] (setting [12]), the MTAP intact/deleted ratio entry is “C (an IC50 ratio of less than 3 fold)”.

Turning to `CCc1cc(NC(=O)C(=O)N2C[C@@H](C)CC[C@@H]2c2ccc3sc(-c4ccccn4)nc3c2)cnc1N` [Compound 1238, N-(6-amino-5-ethylpyridin-3-yl)-2-((2R,5S)-5-methyl-2-(2-(pyridin-2-yl)benzo[d]thiazol-5-yl)piperidin-1-yl)-2-oxoacetamide], the IC50 in test [1] was 50 to 500 nM; in test [2] (read-out: No Cofactor/rel IC50), 50 to 500 nM; in test [3] it was less than 50 nM; in test [4] (setting [8]) it was 100 to 1000 nM; in test [5] (setting [11]), less than 100 nM; in test [6] (setting [10]), less than 1000 nM. In addition, the MTAP intact/deleted ratio result in test [5] (IC50 ratio HAP1 MTAP-intact vs HAP1 MTAP-deleted, SDMA in-cell western) was “A (an IC50 ratio greater than or equal to 10 fold)”.

Regarding `CCc1cc(NC(=O)C(=O)N2C[C@@H](C)CC[C@@H]2c2ccc3sc(CC(C)N(C)C)nc3c2)cnc1N` (mixture of isomers) [Compound 1345, N-(6-amino-5-ethylpyridin-3-yl)-2-((2R,5S)-2-(2-(2-(dimethylamino)propyl)benzo[d]thiazol-5-yl)-5-methylpiperidin-1-yl)-2-oxoacetamide], the IC50 was 50 to 500 nM in test [1]; less than 50 nM in test [2] (setting [7]); less than 50 nM in test [3]; less than 100 nM in test [4] (setting [8]); less than 100 nM in test [5] (setting [9]); less than 1000 nM in test [6] (setting [13]). The “MTAP intact/deleted ratio” value in test [5] (setting [12]) is “A (an IC50 ratio greater than or equal to 10 fold)”.

Regarding `[H][C@]1([C@]2([H])C[C@]3(C[C@H](O)C3)C2)CC[C@H](C)CN1C(=O)C(=O)Nc1cnc(N)c(C)c1` (single isomer, unassigned) [Compound 766], the IC50 was greater than 500 nM in test [1]; greater than 500 nM in test [2] (read-out: No Cofactor/rel IC50); greater than 500 nM in test [3]; greater than 1000 nM in test [4] (setting [8]); greater than 1000 nM in test [5] (SDMA in-cell western, HAP1 MTAP-deleted, read-out: HAP1 MTAP deleted IC50); greater than 10000 nM in test [6] (HAP1, viability assay, HAP1 MTAP-deleted, read-out: HAP1 MTAP deleted viability). Also, the MTAP intact/deleted ratio entry in test [5] (setting [12]) is reported as “C (an IC50 ratio of less than 3 fold)”.

As for `COc1ncc(NC(=O)C(=O)N2C[C@@H](C)CC[C@@H]2c2ccc3scnc3c2)cc1C(N)=O` (single isomer, unassigned) [Compound 602], the IC50 in test [1] was less than 50 nM; in test [2] (read-out: No Cofactor/rel IC50), less than 50 nM; in test [3], less than 50 nM; in test [4] (HAP1, read-out: MTAP HAP1 intact IC50), 100 to 1000 nM; in test [5] (Homo sapiens, HAP1, read-out: HAP1 MTAP deleted IC50) it was less than 100 nM; in test [6] (HAP1, read-out: HAP1 MTAP deleted viability), less than 1000 nM. Besides, the MTAP intact/deleted ratio entry in test [5] (setting [12]) was “A (an IC50 ratio greater than or equal to 10 fold)”.

In the case of `Cc1cc(NC(=O)C(=O)N2C[C@@H](C)CC[C@@H]2c2ccc3sc(C4CC(C)(C)N(C)C(C)(C)C4)nc3c2)cnc1C` [Compound 1315, N-(5,6-dimethylpyridin-3-yl)-2-((2R,5S)-5-methyl-2-(2-(1,2,2,6,6-pentamethylpiperidin-4-yl)benzo[d]thiazol-5-yl)piperidin-1-yl)-2-oxoacetamide], the IC50 in test [1] was less than 50 nM; in test [2] (setting [7]), less than 50 nM; in test [3], less than 50 nM; in test [4] (setting [8]), 100 to 1000 nM; in test [5] (setting [9]), less than 100 nM; in test [6] (setting [13]) it was less than 1000 nM. Besides, the “MTAP intact/deleted ratio” value in test [5] (setting [12]) was “A (an IC50 ratio greater than or equal to 10 fold)”.

As to `Cc1ncc(NC(=O)C(=O)N2C[C@@H](C)CC[C@@H]2c2ccccc2)cc1C(N)=O` (single isomer, unassigned) [Compound 200], the IC50 was 50 to 500 nM in test [1]; 50 to 500 nM in test [2] (read-out: No Cofactor/rel IC50); less than 50 nM in test [3]; greater than 1000 nM in test [4] (setting [8]); less than 100 nM in test [5] (setting [11]); 1000 to 10000 nM in test [6] (setting [10]). Besides, the MTAP intact/deleted ratio entry in test [5] (setting [12]) is “A (an IC50 ratio greater than or equal to 10 fold)”.

For the origin of these results see patent US11999727B2 (Tango Therapeutics, Inc., priority 2020, dated 2024).
